We go through one molecule from paper PMC7138307 (PLoS ONE, 2020).

The test concerns the target T1, PIP4K2C (Mus musculus, UniProt Q91XU3).
T1 construct: from tissue; host or cells: mouse cortical brain lysate
T1 sequence (Q91XU3 1-421): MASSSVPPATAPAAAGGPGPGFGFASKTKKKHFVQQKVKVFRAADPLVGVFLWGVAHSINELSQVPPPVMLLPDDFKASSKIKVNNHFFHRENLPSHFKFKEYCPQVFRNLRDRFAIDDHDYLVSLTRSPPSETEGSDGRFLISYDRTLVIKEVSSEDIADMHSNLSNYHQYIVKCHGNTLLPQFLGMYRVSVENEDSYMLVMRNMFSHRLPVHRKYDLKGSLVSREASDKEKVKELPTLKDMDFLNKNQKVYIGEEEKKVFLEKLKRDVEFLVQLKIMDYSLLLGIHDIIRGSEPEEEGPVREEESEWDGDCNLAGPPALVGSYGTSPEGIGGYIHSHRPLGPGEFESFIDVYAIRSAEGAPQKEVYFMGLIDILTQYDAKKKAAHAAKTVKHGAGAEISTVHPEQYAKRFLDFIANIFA
Nature of the test: Ex vivo KiNativ ATP/ADP probe competition in mouse cortical brain lysates. It is filed as binding. The following applies: labeling site ATP.

Regarding `CCC(C)(O)C#Cc1cc2c(ccn2-c2ccnc(N)n2)cn1` (stereo not drawn) [BIIB-TTBK1i], the “Percent Inhibition at 1μM” value is 88.8% (TLVIKEVSSEDIADMHSNLSNYHQYIVK, ADP probe); 76.5% (TLVIKEVSSEDIADMHSNLSNYHQYIVK, ATP probe); 67.9% (VKELPTLKDMDFLNK, ATP probe).
